Columns and labels:
[1] = tested on: MDA-MB-231-luc-D3H2LN cells; test: Survival in a rodent model of breast cancer (intracardiac injection of MDA-MB-231-luc-D3H2LN cells); format: in vivo, Female Harlan nude mice (Hsd:Athymic Nude-Foxn1nu); conditions: for effect on survival (Kaplan-Meier, FIG. 1): intraperitoneal QDx5 from day 22 after implantation, 5 mg/kg gemcitabine-ibandronate conjugate, 6 mg/mg gemcitabine-etidronate conjugate, equimolar free etidronate, ibandronate, gemcitabine, groups of 10
Procedure: FIG. 1 provides Kaplan-Meier survival curves: a murine model of breast cancer of mice treated with saline gemcitabine-ibandronate conjugate (GEM-IB) or gemcitabine-etidronate conjugate (GEM-ET).
Female Harlan nude mice (Hsd:Athymic Nude-Foxn1nu) of 8 weeks age were administered a 100 uL intracardiac injection of MDA-MB-231-luc-D3H2LN cells (Caliper/Xenogen) at106 cells/mL in Dulbecco's Phosphate Buffered Saline. Twenty-two days after implantation the animals were randomized into groups of 10. Each group received one of the following agents 5 days per week (QDx5) as a 100 uL intraperitoneal injection to achieve a dosing of: saline, 5 mg/kg gemcitabine-ibandronate conjugate, 6 mg/mg gemcitabine-etidronate conjugate, equimolar free etidronate, equimolar free ibandronate, equimolar free gemcitabine.

[2] = tested on: 22 RV1-Luc+ prostate cancer cells; test: Survival and tumor imaging in a rodent model of prostate cancer induced bone disease (intratibial 22 RV1-Luc+ cells); format: in vivo, male SCID mice
Procedure: Six-week old male SCID mice were injected with 10 uL of 10^6 22 RV1-Luc+ prostate cancer cells into the tibia. Luminescence on day 6 confirmed implantation and mice were randomized into groups of 10 and began dosing on day 7. Mice received intraperitoneal injections 5 days/week of saline or 2 mg/kg gemcitibine-ibandronate conjugate (compound 5, example 1) until the end of week 6 and were imaged every 7 days. A Xenogen imaging station was used to visualize tumor cells; the heat map from light blue to red indicates increasing tumor cells numbers.

[3] = tested on: 22 RV1-Luc+ prostate cancer cells; test: Incidence of distal metastases in a rodent model of prostate cancer induced bone disease (intratibial 22 RV1-Luc+ cells); format: in vivo, male SCID mice; conditions: day 34 and day 41; for percent of mice with distal metastases (FIG. 3): 2 mg/kg gemcitabine-ibandronate conjugate or molar equivalent, intraperitoneal QDx5 from day 7, versus saline
Procedure: Mice were treated with saline, or equimolar doses of ibandronate (Iband), gemcitabine (Gem), gemcitabine-etidronate conjugate (Gem-Eti), or with the gemcitabine-ibandronate conjugate 5 (Gem-Ibad).
As above in example 5, six-week old male SCID mice were injected with 10 uL of 10^6 22 RV1-Luc+ prostate cancer cells into the tibia. Luminescence on day 6 confirmed implantation and mice were randomized into groups of 10-13 and began dosing on day 7. Mice received intraperitoneal injections QDx5 (5 days/week) of saline or 2 mg/kg gemcitibine-ibandronate conjugate or the molar equivalent of gemcitabine-etidronate conjugate, free ibandronate, or free gemcitibine until the end of week 6 and were imaged every 7 days. A Xenogen imaging station was used to visualize tumor cells and metastases distal to the tibial site of implantation.

Molecule | survival benefit compared with the other treatments ([1]; intraperitoneal QDx5, 5 mg/kg gemcitabine-ibandronate conjugate versus 6 mg/mg gemcitabine-etidronate conjugate) | effect on survival (Kaplan-Meier, FIG. 1) [1] | mice alive at the end of 42 days (FIG. 2) ([2]; 2 mg/kg intraperitoneal 5 days/week from day 7 until end of week 6, groups of 10, saline control 6 of 10 alive) | cancer cells present by Xenogen image analysis ([2]; 2 mg/kg intraperitoneal 5 days/week, from day 28 and later, versus saline) | percent of mice with distal metastases (FIG. 3) [3] | benefit on distal metastases compared with the other treatments ([3]; 2 mg/kg intraperitoneal QDx5)
CCCCCN(C)CCC(O)(P(=O)(O)O)P(=O)(O)OP(=O)(O)OC[C@H]1O[C@@H](n2ccc(N)nc2=O)C(F)(F)C1O (some centres unmarked) [conjugate 5, Gemcitabine-Ibandronate Conjugate] | greatest benefit | improved survival | all mice treated with the compound 5 (example 1) were alive | less cancer cells are present | reduced the percent of mice with distal metastases | superior benefit
CC(O)(P(=O)(O)O)P(=O)(O)O [etidronate] | – | did not have a significant effect on survival | – | – | – | –
Nc1ccn([C@@H]2O[C@H](CO)[C@@H](O)C2(F)F)c(=O)n1 [gemcitabine, Gemcitabine] | – | did not have a significant effect on survival | – | – | – | –
CCCCCN(C)CCC(O)(P(=O)(O)O)P(=O)(O)O [ibandronate] | – | did not have a significant effect on survival | – | – | – | –
gemcitabine-etidronate conjugate [reference compound] | – | improved survival | – | – | reduced the percent of mice with distal metastases | –

Reference: patent US11298366B2, “Ibandronate conjugates of nucleoside antimetabolites” (MBC Pharma, Inc., priority 2017, dated 2022)
